Data taken from ChEMBL document CHEMBL5029167, “Development of Asialoglycoprotein-Mediated Hepatocyte-Targeting Antitumor Prodrugs Triggered by Glutathione” (J Med Chem, 2021).
pIC50: −log10 of the molar value. Activity calls are given as the source filed them. No cut-off for these calls is given here.

Columns and labels:
[1] = Drug distribution in Kunming mouse liver at 8.4 mg/kg, iv measured after 3 hrs by confocal scanning microscopic analysis; assay type: ADME, organism-based; conditions: in vivo
[2] = Drug uptake in human HepG2 cells pretreated with galactose for 30 mins followed by compound addition and measured after 15 mins by confocal scanning microscopic analysis; assay type: ADME, cell-based; conditions: hepg2, 0.75 h, time 45 min
[3] = Drug uptake in human HepG2 cells at 10 uM after 15 mins by confocal scanning microscopic analysis; assay type: ADME, cell-based; conditions: hepg2, 0.25 h
[4] = Drug uptake in human A549 cells at 10 uM after 15 mins by confocal scanning microscopic analysis; assay type: ADME, cell-based; conditions: a549, 0.25 h
[5] = Drug uptake in human HeLa cells at 10 uM after 15 mins by confocal scanning microscopic analysis; assay type: ADME, cell-based; conditions: 0.25 h
[6] = Drug uptake in human SGC-7901 cells at 10 uM after 15 mins by confocal scanning microscopic analysis; assay type: ADME, cell-based; conditions: sgc-7901, 0.25 h
[7] = test system: HepG2; experiment: Cytotoxicity against human HepG2 cells at 10 to 80 uM after 24 hrs; assay type: cell-based; conditions: hepg2, 24 h, dose 10-80 µM
[8] = Stability of compound in GSH measured upto 24 hrs; assay type: physicochemical; conditions: GSH (glutathione), read-out: Stability
[9] = test system: HepG2; experiment: Inhibition of cell migration in human HepG2 cells after 24 hrs by crystal violet staining based inverted microscopic analysis; assay type: functional
[10] = test system: HepG2; experiment: Cell cycle arrest in human HepG2 cells assessed as accumulation at S phase at 4 uM measured after 24 hrs by propidium iodide staining based flow cytometric analysis (reference value: 37.10%); assay type: functional
[11] = test system: HepG2; experiment: Induction of apoptosis in human HepG2 cells assessed as viable cells at 9 uM measured after 24 hrs by annexinV-FITC/propidium iodide double staining based flow cytometric analysis (reference value: 93.6 %); assay type: functional; conditions: read-out: Activity
[12] = test system: HepG2; experiment: Induction of morphological changes in human HepG2 cells assessed as chromatin fragmentation incubated for 24 hrs by Hoechst 33342 staining based analysis; assay type: functional, cell-based
[13] = test system: HepG2; experiment: Induction of apoptosis in human HepG2 cells assessed as necrotic cells at 6 uM measured after 24 hrs by annexinV-FITC/propidium iodide double staining based flow cytometric analysis (reference value: 0.0 %); assay type: functional
[14] = test system: HepG2; experiment: Inhibition of colony formation in human HepG2 cells after 7 days by crystal violet staining based inverted microscopic analysis; assay type: functional, cell-based; conditions: time 7.0 day
[15] = test system: HepG2; experiment: Cell cycle arrest in human HepG2 cells assessed as accumulation at G2/M phase at 4 uM measured after 24 hrs by propidium iodide staining based flow cytometric analysis (reference value: 7.63%); assay type: functional
[16] = test system: HepG2; experiment: Induction of apoptosis in human HepG2 cells assessed as early apoptotic cells at 12 uM measured after 24 hrs by annexinV-FITC/propidium iodide double staining based flow cytometric analysis (reference value: 6.3 %); assay type: functional
[17] = test system: HepG2; experiment: Cell cycle arrest in human HepG2 cells assessed as accumulation at G0/G1 phase at 4 uM measured after 24 hrs by propidium iodide staining based flow cytometric analysis (reference value: 55.27%); assay type: functional
[18] = test system: HepG2; experiment: Induction of apoptosis in human HepG2 cells assessed as late apoptotic cells at 6 uM measured after 24 hrs by annexinV-FITC/propidium iodide double staining based flow cytometric analysis (reference value: 0.1 %); assay type: functional
[19] = test system: HepG2; experiment: Induction of apoptosis in human HepG2 cells assessed as necrotic cells at 12 uM measured after 24 hrs by annexinV-FITC/propidium iodide double staining based flow cytometric analysis (reference value: 0.0 %); assay type: functional
[20] = test system: HepG2; experiment: Cell cycle arrest in human HepG2 cells assessed as accumulation at S phase at 8 uM measured after 24 hrs by propidium iodide staining based flow cytometric analysis (reference value: 37.10%); assay type: functional
[21] = Toxicity in Kunming mouse implanted with mouse H22 cells assessed as change in organ weight at 3.5 mg/kg after 7 days; assay type: organism-based; conditions: in vivo, 168 h, time 7 day
[22] = Drug distribution in Kunming mouse liver at 3.5 mg/kg, iv measured after 3 hrs by confocal scanning microscopic analysis; assay type: ADME, organism-based; conditions: in vivo
[23] = Drug distribution in Kunming mouse heart at 3.5 mg/kg, iv measured after 3 hrs by confocal scanning microscopic analysis; assay type: ADME, organism-based; conditions: in vivo
[24] = test system: HepG2; experiment: Induction of apoptosis in human HepG2 cells assessed as viable cells at 6 uM measured after 24 hrs by annexinV-FITC/propidium iodide double staining based flow cytometric analysis (reference value: 93.6 %); assay type: functional; conditions: read-out: Activity
[25] = test system: HepG2; experiment: Cell cycle arrest in human HepG2 cells assessed as accumulation at S phase at 2 uM measured after 24 hrs by propidium iodide staining based flow cytometric analysis (reference value: 37.10%); assay type: functional
[26] = Drug distribution in Kunming mouse spleen at 3.5 mg/kg, iv measured after 3 hrs by confocal scanning microscopic analysis; assay type: ADME, organism-based; conditions: in vivo
[27] = test system: HepG2; experiment: Induction of apoptosis in human HepG2 cells assessed as upregulation of caspase 3 protein expression at 2 to 8 uM after 24 hrs; assay type: functional, cell-based; conditions: dose 2-8 µM
[28] = test system: HepG2; experiment: Induction of apoptosis in human HepG2 cells assessed as necrotic cells at 9 uM measured after 24 hrs by annexinV-FITC/propidium iodide double staining based flow cytometric analysis (reference value: 0.0 %); assay type: functional
[29] = Drug distribution in Kunming mouse lung at 3.5 mg/kg, iv measured after 3 hrs by confocal scanning microscopic analysis; assay type: ADME, organism-based; conditions: in vivo
[30] = test system: HepG2; experiment: Induction of apoptosis in human HepG2 cells assessed as early apoptotic cells at 9 uM measured after 24 hrs by annexinV-FITC/propidium iodide double staining based flow cytometric analysis (reference value: 6.3 %); assay type: functional
[31] = test system: HepG2; experiment: Cell cycle arrest in human HepG2 cells assessed as accumulation at G2/M phase at 8 uM measured after 24 hrs by propidium iodide staining based flow cytometric analysis (reference value: 7.63%); assay type: functional
[32] = test system: HepG2; experiment: Cytotoxicity against human HepG2 cells at 2 to 10 uM after 48 hrs by MTT assay; assay type: functional, cell-based; conditions: HepG2, 48 h
[33] = test system: HepG2; experiment: Cell cycle arrest in human HepG2 cells assessed as accumulation at G0/G1 phase at 8 uM measured after 24 hrs by propidium iodide staining based flow cytometric analysis (reference value: 55.27%); assay type: functional
[34] = test system: H22; experiment: Antitumor activity against mouse H22 cells implanted in Kunming mouse assessed as tumor growth inhibition at 3.5 mg/kg measured on day 7; assay type: functional; parameters: scale not given: the % may be the effect or the level left; conditions: time 7 day
[35] = test system: HepG2; experiment: Induction of apoptosis in human HepG2 cells assessed as late apoptotic cells at 12 uM measured after 24 hrs by annexinV-FITC/propidium iodide double staining based flow cytometric analysis (reference value: 0.1 %); assay type: functional
[36] = test system: HepG2; experiment: Induction of apoptosis in human HepG2 cells assessed as late apoptotic cells at 9 uM measured after 24 hrs by annexinV-FITC/propidium iodide double staining based flow cytometric analysis (reference value: 0.1 %); assay type: functional
[37] = test system: HepG2; experiment: Induction of morphological changes in human HepG2 cells assessed as chromatin condensation incubated for 24 hrs by Hoechst 33342 staining based analysis; assay type: functional, cell-based
[38] = test system: HepG2; experiment: Cell cycle arrest in human HepG2 cells assessed as accumulation at G2/M phase at 2 uM measured after 24 hrs by propidium iodide staining based flow cytometric analysis (reference value: 7.63%); assay type: functional
[39] = test system: HepG2; experiment: Induction of apoptosis in human HepG2 cells assessed as viable cells at 12 uM measured after 24 hrs by annexinV-FITC/propidium iodide double staining based flow cytometric analysis (reference value: 93.6 %); assay type: functional; conditions: read-out: Activity
[40] = test system: HepG2; experiment: Induction of apoptosis in human HepG2 cells assessed as early apoptotic cells at 6 uM measured after 24 hrs by annexinV-FITC/propidium iodide double staining based flow cytometric analysis (reference value: 6.3 %); assay type: functional
[41] = test system: HepG2; experiment: Cell cycle arrest in human HepG2 cells assessed as accumulation at G0/G1 phase at 2 uM measured after 24 hrs by propidium iodide staining based flow cytometric analysis (reference value: 55.27%); assay type: functional
[42] = Drug distribution in Kunming mouse kidney at 3.5 mg/kg, iv measured after 3 hrs by confocal scanning microscopic analysis; assay type: ADME, organism-based; conditions: in vivo
[43] = Toxicity in Kunming mouse implanted with mouse H22 cells assessed as change in body weight at 3.5 mg/kg after 7 days; assay type: organism-based; conditions: in vivo, 168 h, time 7 day

## C=C[C@]1(C)CC[C@@H](C(=C)Cn2cc(CN3C(=O)c4cccc5c(N6CCN(C(=O)OCCSSCCOCC(=O)NC(COCc7cn([C@@H]8O[C@H](CO)[C@H](O)[C@H](O)[C@H]8O)nn7)COCc7cn([C@@H]8O[C@H](CO)[C@H](O)[C@H](O)[C@H]8O)nn7)CC6)ccc(c45)C3=O)nn2)C[C@H]1C(=C)C
[1]
  Drug uptake: Active
[2]
  Drug uptake: Not Active
[3]
  Drug uptake: Active
[4]
  Drug uptake: Active
[5]
  Drug uptake: Active
[6]
  Drug uptake: Active
[7]
  Activity: Non-Toxic

## C=C[C@]1(C)CC[C@@H](C(=C)Cn2cc(CN3C(=O)c4cccc5c(N6CCN(C(=O)OCCCCCCOCc7cn([C@@H]8O[C@H](CO)[C@H](O)[C@H](O)[C@H]8O)nn7)CC6)ccc(c45)C3=O)nn2)C[C@H]1C(=C)C
[8]
  remaining at 24 h: 99%

## C=C[C@]1(C)CC[C@@H](C(=C)Cn2cc(CN3C(=O)c4cccc5c(N6CCNCC6)ccc(c45)C3=O)nn2)C[C@H]1C(=C)C
[9]
  inhibition: Dose-Dependent Effect
[10]
  Activity: 30.47%
[11]
  viability at 9 µM: 9.7%
[12]
  Activity: Active
[13]
  Activity: 0%
[14]
  inhibition: Dose-Dependent Effect
[15]
  Activity: 5.29%
[16]
  Activity: 94.9%
[17]
  Activity: 64.24%
[18]
  Activity: 1.9%
[19]
  Activity: 0%
[20]
  Activity: 21.81%
[21]
  Activity: Non-Toxic
[22]
  Drug uptake: Not Active
[3]
  Drug uptake: Not Active
[23]
  Drug uptake: Not Active
[4]
  Drug uptake: Not Active
[24]
  viability at 6 µM: 51.5%
[25]
  Activity: 29.93%
[5]
  Drug uptake: Not Active
[26]
  Drug uptake: Not Active
[27]
  Activity: Active
[28]
  Activity: 0%
[29]
  Drug uptake: Not Active
[30]
  Activity: 89.4%
[31]
  Activity: 67.4%
[32]
  pIC50: 5.21
[33]
  Activity: 71.44%
[34]
  Activity: 33.65%
[35]
  Activity: 0.3%
[6]
  Drug uptake: Not Active
[36]
  Activity: 0.9%
[37]
  Activity: Active
[38]
  Activity: 6.61%
[39]
  viability at 12 µM: 4.7%
[40]
  Activity: 46.5%
[41]
  Activity: 63.46%
[42]
  Drug uptake: Not Active
[43]
  Activity: Non-Toxic
